“And” between values parts separate entries of the source, which are not always exact repeats. Identical values can stand only once.
Tests used:
[1] = test system: OCI-LY10 xenograft; assay: OCI-LY10 xenograft efficacy and survival; format: in vivo, C.B-17 SCID mouse; design: OCI-LY10 xenograft efficacy, individual animals: unit not given here; conditions: for OCI-LY10 xenograft efficacy, individual animals: Acalabrutinib 12.5mpk BID
Procedure: (§1) Female C.B.−17 SCID mice were purchased from Charles River Laboratories. Mice were 5–8 weeks old at the time of tumour implantation. All xenograft studies were conducted at our Association for the Assessment and Accreditation of Laboratory Animal Care accredited facility in Waltham, MA in accordance with ethical regulations described in the guidelines established by the internal Institutional Animal Care and Use Committee. The dendrimer conjugates were formulated in citrate/phosphate buffer pH 5.0, diluted 1:10 with 5% glucose containing 1% w/v Kolliphor HS15, and AZD4320 was formulated in 30% HP-β-CD and dosed as a weekly intravenous (IV) administration at a volume of 5 ml/kg at the indicated doses. Five million RS4;11, five million SUDHL-4 or five million OCI-LY-10 cells were injected subcutaneously in the right flank of mice in a volume of 0.1 ml. Tumour volumes (measured by caliper), animal body weight, and tumor condition were recorded twice weekly for the duration of the study. The tumour volume was calculated (taking length to be the longest diameter across the tumour and width to be the corresponding perpendicular diameter) using the formula: length (mm) x width (mm)^2/0.52. For efficacy studies, mice were randomized based on tumour volumes using stratified sampling and enrolled into control and treatment groups. Tumour growth inhibition from the start of treatment was quantified by measuring the difference in tumour volume between control and treated groups. Survival analysis was evaluated using Mantel-Cox test. Tumours were also taken for bioanalysis.

[2] = test system: SUDHL-4 xenograft; assay: SUDHL-4 xenograft efficacy and survival; format: in vivo, C.B-17 SCID mouse; conditions: Rituxan (Rtx) 10 mg/kg
Procedure: as §1

Compound: CC#CC(=O)N1CCC[C@H]1c1nc(-c2ccc(C(=O)Nc3ccccn3)cc2)c2c(N)nccn12 [acalabrutinib, reference compound]
- OCI-LY10 xenograft efficacy, individual animals ([1]; day 18): 127 and 164 and 248 and 101 and 210 and 188 and 174 and 141
- OCI-LY10 xenograft efficacy, individual animals ([1]; day 21): 221 and 332 and 538 and 104 and 333 and 303 and 198 and 259
- OCI-LY10 xenograft efficacy, individual animals ([1]; day 25): 299 and 256 and 495 and 88 and 284 and 527 and 334 and 162
- OCI-LY10 xenograft efficacy, individual animals ([1]; day 28): 232 and 311 and 519 and 141 and 436 and 334 and 361 and 191
- OCI-LY10 xenograft efficacy, individual animals ([1]; day 32): 363 and 375 and 663 and 150 and 384 and 401 and 347 and 391
- OCI-LY10 xenograft efficacy, individual animals ([1]; day 35): 402 and 443 and 532 and 209 and 471 and 429 and 383 and 277
- OCI-LY10 xenograft efficacy, individual animals ([1]; day 39): 393 and 553 and 891 and 198 and 472 and 366 and 578 and 547
- OCI-LY10 xenograft efficacy, individual animals ([1]; day 42): 405 and 474 and 589 and 106 and 385 and 656 and 416 and 224
- monotherapy activity ([1]; OCI-LY10 DLBCL model): neither agent showed any demonstrable monotherapy activity

Compound: Rituxan (Rtx)
- SUDHL-4 xenograft efficacy, Geo Mean ([2]; day 1): 207.17
- SUDHL-4 xenograft efficacy, Geo Mean ([2]; day 5): 194.343
- SUDHL-4 xenograft efficacy, Geo Mean ([2]; day 9): 229.272
- SUDHL-4 xenograft efficacy, Geo Mean ([2]; day 12): 236.829
- SUDHL-4 xenograft efficacy, Geo Mean ([2]; day 16): 277.244
- SUDHL-4 xenograft efficacy, Geo Mean ([2]; day 19): 341.784
- SUDHL-4 xenograft efficacy, Geo Mean ([2]; day 23): 461.782
- SUDHL-4 xenograft efficacy, Geo Mean ([2]; day 26): 534.569
- SUDHL-4 xenograft efficacy, Geo Mean ([2]; day 29): 692.979
- SUDHL-4 xenograft efficacy, Geo Mean ([2]; day 32): 702.104
